According to ChEMBL document CHEMBL4706491, “Discovery of novel N-sulfonamide-tetrahydroquinolines as potent retinoic acid receptor-related orphan receptor γt inverse agonists for the treatment of autoimmune diseases” (Eur J Med Chem, 2020):

Columns and labels:
[1] = target: T1, Nuclear receptor ROR-gamma (Homo sapiens, UniProt P51449)
T1 sequence (P51449 whole entry): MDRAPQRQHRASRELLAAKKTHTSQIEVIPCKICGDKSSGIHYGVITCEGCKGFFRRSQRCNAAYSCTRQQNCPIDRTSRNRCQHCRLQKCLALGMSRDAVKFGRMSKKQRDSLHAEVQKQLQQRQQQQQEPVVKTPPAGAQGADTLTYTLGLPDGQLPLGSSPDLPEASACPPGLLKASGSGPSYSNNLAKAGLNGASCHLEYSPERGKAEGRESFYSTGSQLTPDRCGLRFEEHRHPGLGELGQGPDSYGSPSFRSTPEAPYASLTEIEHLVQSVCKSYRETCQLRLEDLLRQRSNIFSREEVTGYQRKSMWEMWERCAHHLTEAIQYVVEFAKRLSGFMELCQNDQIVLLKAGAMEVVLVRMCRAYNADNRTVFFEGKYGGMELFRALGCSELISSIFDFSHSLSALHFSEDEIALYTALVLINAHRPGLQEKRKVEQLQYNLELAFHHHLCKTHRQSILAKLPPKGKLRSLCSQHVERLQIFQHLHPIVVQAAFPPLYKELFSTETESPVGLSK

in vitro [2] = conditions: CD-1, mouse, liver
[3] = Half life in CD-1 mouse liver microsomes at 1 uM measured up to 60 mins in presence of NADPH by LC-MS/MS analysis
in vitro [4] = conditions: CD-1, mouse, liver microsomes
[5] = target: T1, Nuclear receptor ROR-gamma; assay: Agonist activity at APC-labeled RORgammat LBD (unknown origin) incubated for 1 hr in presence of europium-labeled co-activator SRC1 by FRET assay

SMILES | XC50 [1] [nM] | further results
CC(=O)N1CCN(c2ccc3c(c2)CCCN3S(=O)(=O)N(C)Cc2cccc(Cl)c2)CC1 | 104 | –
CC(=O)N1CCN(c2ccc(CN(C3CCC3)S(=O)(=O)Cc3ccccc3)cc2)CC1 | – | CLint scaled at 1 h, 1 µM (in vitro [2]): 2420 mL/min/kg; half-life at 1 h, 1 µM [3]: 2.3 min; microsomal CLint at 1 h, 1 µM (in vitro [4]): 612 µL/min/mg
CC(=O)N1CCN(c2ccc3c(c2)CCCN3S(=O)(=O)c2ccccc2)CC1 | – | EC50 [5]: 4.84 µM
CC(=O)N1CCN(c2ccc3c(c2)CCCN3S(=O)(=O)N(C)Cc2cccc(F)c2)CC1 | 324 | –
CC(=O)N1CCN(c2ccc3c(c2)CCCN3S(=O)(=O)N(C)Cc2cccc(C)c2)CC1 | 768 | –
CC(=O)N1CCN(c2ccc3c(c2)CCCN3S(=O)(=O)N(C)Cc2ccc(C(F)(F)F)cc2)CC1 | 1550 | –

The next lines start with results.

XC50 [1] [nM] | SMILES | further results
910 | CC(=O)N1CCN(c2ccc3c(c2)CCCN3S(=O)(=O)N(C)CCc2ccccc2)CC1 | –
906 | CC(=O)N1CCN(c2ccc3c(c2)CCCN3S(=O)(=O)CCc2ccccc2)CC1 | –
7230 | CC(=O)N1CCN(c2ccc3c(c2)CCCN3S(=O)(=O)N(C)CCCc2ccccc2)CC1 | –
86 | CC(=O)N1CCN(c2ccc3c(c2)CCCN3S(=O)(=O)N(C)Cc2ccccc2Cl)CC1 | –
143 | CC(=O)N1CCN(c2ccc3c(c2)CCCN3S(=O)(=O)N(C)Cc2ccccc2C)CC1 | –
